# Measured values from patent US8623859B2, “Bradykinin B1 antagonists” (Evotec AG, priority 2008, dated 2014).
# Counter-ions that a name gives are not always drawn.
# Biological target: T1, human B1 (Homo sapiens, UniProt P46663)
# T1 construct: host or cells: CHO-K1
# T1 sequence (P46663 1-353): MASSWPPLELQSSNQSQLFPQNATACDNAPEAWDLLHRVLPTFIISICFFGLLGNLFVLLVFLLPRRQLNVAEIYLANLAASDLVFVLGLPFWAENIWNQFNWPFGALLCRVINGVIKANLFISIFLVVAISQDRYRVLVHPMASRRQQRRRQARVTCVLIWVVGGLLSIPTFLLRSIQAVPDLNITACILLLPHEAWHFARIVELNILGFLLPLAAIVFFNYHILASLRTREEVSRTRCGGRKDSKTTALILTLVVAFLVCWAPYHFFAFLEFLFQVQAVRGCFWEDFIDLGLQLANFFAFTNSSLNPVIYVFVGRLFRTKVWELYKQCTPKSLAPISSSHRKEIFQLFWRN
# Assay: Calcium flux assay for Bradykinin B1 antagonist, CHO-K1 cell line expressing human B1
# Format: cell-based
# Conditions: CHO-K1 cells expressing human B1, agonist Lys-(Des-Arg)-Bradykinin, read-out: Potency (IC50 value against human B1)
# Method in brief: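 Inhibition of B1 agonist-evoked intracellular Ca2+ rise was followed by continuous fluorescence at 538 nm, with integrated, background-normalized signals plotted versus log compound concentration. Test compounds (eight 10-fold dilutions, triplicate, 1% DMSO final) were added 30 min at 25° C beforehand to Fluo-4AM-loaded human B1 CHO-K1 cells in pH 7.4 assay buffer.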
row,IC50 [nM],SMILES
1,< 10,"COc1cc(C)c(S(=O)(=O)N(Cc2nc(C(=O)N3CCN(Cc4cccnc4N)CC3)co2)C2CC2)c(C)c1 [Ex 253, N-{[4-({4-[(2-Aminopyridin-3-yl)methyl]piperazin-1-yl}carbonyl)-1,3-oxazol-2-yl]methyl}-N-cyclopropyl-4-methoxy-2,6-dimethylbenzenesulfonamide]"
2,100 to 1000,"CN1CCC(CN2CCN(C(=O)c3coc(CN(C)S(=O)(=O)c4c(Cl)cccc4Cl)c3)CC2)CC1 [Ex 17, 2,6-dichloro-N-methyl-N-{[4-({4-[(1-methylpiperidin-4-yl)methyl]piperazin-1-yl}carbonyl)furan-2-yl]methyl}benzenesulfonamide]"
3,100 to 1000,"COc1cc(C)c(S(=O)(=O)N(Cc2cc(C(=O)NCc3ccc(C4=NCCN4)cc3)co2)C2CC2)c(C)c1 [Ex 82, 5-({cyclopropyl[(4-methoxy-2,6-dimethylphenyl)sulfonyl]amino}methyl)-N-[4-(4,5-dihydro-1H-imidazol-2-yl)benzyl]furan-3-carboxamide trifluoroacetate]"
4,< 10,"COc1cc(C)c(S(=O)(=O)N(Cc2cc(C(=O)NCCc3ccc(C4=NCCN4)cc3)co2)C2CC2)c(C)c1 [Ex 52, 5-({Cyclopropyl[(4-methoxy-2,6-dimethylphenyl)sulfonyl]amino}methyl)-N-{2-[4-(4,5-dihydro-1H-imidazol-2-yl)phenyl]ethyl}furan-3-carboxamide]"
5,10 to 100,"COc1cc(C)c(S(=O)(=O)N(Cc2cc(C(=O)N3CCN(CC4CCCN(C)C4)CC3)co2)C2CC2)c(C)c1 (stereo not shown) [Ex 106, N-Cyclopropyl-4-methoxy-2,6-dimethyl-N-{[4-({4-[(1-methylpiperidin-3-yl)methyl]piperazin-1-yl}carbonyl)furan-2-yl]methyl}benzenesulfonamide trifluoroacetate]"
6,< 10,"COc1cc(C)c(S(=O)(=O)N(C)Cc2nnc(C(=O)N3CCN(Cc4c[nH]c(C)n4)CC3)o2)c(C)c1 [Ex 292, 4-Methoxy-N,2,6-trimethyl-N-{[5-({4-[(2-methyl-1H-imidazol-4-yl)methyl]piperazin-1-yl}carbonyl)-1,3,4-oxadiazol-2-yl]methyl}benzenesulfonamide]"
7,100 to 1000,"COc1cc(C)c(S(=O)(=O)N(C)Cc2cc(C(=O)N3CCC(CN4CCCC4)CC3)co2)c(C)c1 [Ex 41, 4-methoxy-N,2,6-trimethyl-N-[(4-{[4-(pyrrolidin-1-ylmethyl)piperidin-1-yl]carbonyl}furan-2-yl)methyl]benzenesulfonamide]"
8,100 to 1000,"CN(Cc1ccc(CN2CCCC2)cc1)C(=O)c1coc(CN(C2CC2)S(=O)(=O)c2c(Cl)cc(Cl)cc2Cl)n1 [Ex 216, 2-({Cyclopropyl[(2,4,6-trichlorophenyl)sulfonyl]amino}methyl)-N-methyl-N-[4-(pyrrolidin-1-ylmethyl)benzyl]-1,3-oxazole-4-carboxamide trifluoroacetate]"
9,100 to 1000,"COc1cc(C)c(S(=O)(=O)N(C)Cc2cc(C(=O)N3CCN(C4CCN(C)CC4)CC3)co2)c(C)c1 [Ex 1, 4-Methoxy-N,2,6-trimethyl-N-[(4-{[4-(1-methylpiperidin-4-yl)piperazin-1-yl]carbonyl}furan-2-yl)methyl]benzenesulfonamide]"
10,< 10,"COc1cc(C)c(S(=O)(=O)N(C)Cc2cc(C(=O)NCCc3ccc(C4=NCCN4)cc3)co2)c(C)c1 [Ex 4, N-{2-[4-(4,5-dihydro-1H-imidazol-2-yl)phenyl]ethyl}-5-({[(4-methoxy-2,6-dimethylphenyl)sulfonyl](methyl)amino}methyl)furan-3-carboxamide]"
11,10 to 100,"COc1cc(C)c(S(=O)(=O)N(C)Cc2nnc(C(=O)N(C)Cc3cccc(CN4CCCC4)c3)s2)c(C)c1 [Ex 331, 5-({[(4-Methoxy-2,6-dimethylphenyl)sulfonyl](methyl)amino}methyl)-N-methyl-N-[3-(pyrrolidin-1-ylmethyl)benzyl]-1,3,4-thiadiazole-2-carboxamide trifluoroacetate]"
12,< 10,"COc1cc(C)c(S(=O)(=O)N(C)Cc2nc(C(=O)N(C)Cc3cccc(CN4CCCC4)c3)co2)c(C)c1 [Ex 73, 2-({[(4-Methoxy-2,6-dimethylphenyl)sulfonyl](methyl)amino}methyl)-N-methyl-N-[3-(pyrrolidin-1-ylmethyl)benzyl]-1,3-oxazole-4-carboxamide]"
13,100 to 1000,"COc1cc(C)c(S(=O)(=O)N(C)Cc2nc(C(=O)N3CCN(CCN4CCCC4)CC3)co2)c(C)c1 [Ex 164, 4-Methoxy-N,2,6-trimethyl-N-[(4-{[4-(2-pyrrolidin-1-ylethyl)piperazin-1-yl]carbonyl}-1,3-oxazol-2-yl)methyl]benzenesulfonamide]"
14,100 to 1000,"COc1cc(C)c(S(=O)(=O)N(C)Cc2nnc(C(=O)N(C)Cc3ccc(CN4CC(OC)C4)cc3)o2)c(C)c1 [Ex 287, N-{4-[(3-Methoxyazetidin-1-yl)methyl]benzyl}-5-({[(4-methoxy-2,6-dimethylphenyl)sulfonyl](methyl)amino}methyl)-N-methyl-1,3,4-oxadiazole-2-carboxamide]"
15,10 to 100,"CCN(Cc1ccc(CN2CCCC2)cc1)C(=O)c1coc(CN(C)S(=O)(=O)c2c(C)cc(OC)cc2C)c1 [Ex 150, N-Ethyl-5-({[(4-methoxy-2,6-dimethylphenyl)sulfonyl](methyl)amino}methyl)-N-[4-(pyrrolidin-1-ylmethyl)benzyl]furan-3-carboxamide trifluoroacetate]"
16,< 10,"COc1cc(C)c(S(=O)(=O)N(C)Cc2nnc(C(=O)NCCc3ccc(C4=NCCN4)cc3)o2)c(C)c1 [Ex 269, N-{2-[4-(4,5-Dihydro-1H-imidazol-2-yl)phenyl]ethyl}-5-({[(4-methoxy-2,6-dimethylphenyl)sulfonyl](methyl)amino}methyl)-1,3,4-oxadiazole-2-carboxamide trifluoroacetate]"
17,< 10,"COc1cc(C)c(S(=O)(=O)N(Cc2nc(C(=O)N(C)Cc3ccc(CN4CCCC(O)C4)cc3)co2)C2CC2)c(C)c1 (stereo not shown) [Ex 180, 2-({Cyclopropyl[(4-methoxy-2,6-dimethylphenyl)sulfonyl]amino}methyl)-N-{4-[(3-hydroxypiperidin-1-yl)methyl]benzyl}-N-methyl-1,3-oxazole-4-carboxamide]"
18,< 10,"COc1cc(C)c(S(=O)(=O)N(Cc2nc(C(=O)N(C)Cc3ccc(CN4CCC(OC)C4)cc3)co2)C2CC2)c(C)c1 (stereo not shown) [Ex 182, 2-({Cyclopropyl[(4-methoxy-2,6-dimethylphenyl)sulfonyl]amino}methyl)-N-{4-[(3-methoxypyrrolidin-1-yl)methyl]benzyl}-N-methyl-1,3-oxazole-4-carboxamide]"
19,< 10,"COc1cc(C)c(S(=O)(=O)N(C)Cc2cc(C(=O)NCCc3ccc(C4=NCC(C)(C)N4)cc3)co2)c(C)c1 [Ex 94, N-{2-[4-(5,5-Dimethyl-4,5-dihydro-1H-imidazol-2-yl)phenyl]ethyl}-5-({[(4-methoxy-2,6-dimethylphenyl)sulfonyl](methyl)amino}methyl)furan-3-carboxamide trifluoroacetate]"
20,< 10,"Cc1cc(S(=O)(=O)N(C)Cc2cc(C(=O)N(C)Cc3ccc(C4=NCCN4)cc3)co2)c(C)cc1Cl [Ex 20, 5-({[(4-chloro-2,5-dimethylphenyl)sulfonyl](methyl)amino}methyl)-N-[4-(4,5-dihydro-1H-imidazol-2-yl)benzyl]-N-methylfuran-3-carboxamide]"
21,< 10,"COc1cc(C)c(S(=O)(=O)N(Cc2nc(C(=O)N3CC4CCN(Cc5ccc(N6CCCC6)nc5)CC4C3)co2)C2CC2)c(C)c1 (stereo not shown) [Ex 211, N-Cyclopropyl-4-methoxy-2,6-dimethyl-N-{[4-({5-[(6-pyrrolidin-1-ylpyridin-3-yl)methyl]octahydro-2H-pyrrolo[3,4-c]pyridin-2-yl}carbonyl)-1,3-oxazol-2-yl]methyl}benzenesulfonamide trifluoroacetate]"
22,100 to 1000,"COc1cc(C)c(S(=O)(=O)N(C)Cc2cc(C(=O)N(C)CCc3ccc(C4=NCCN4C)cc3)co2)c(C)c1 [Ex 98, 5-({[(4-Methoxy-2,6-dimethylphenyl)sulfonyl](methyl)amino}methyl)-N-methyl-N-{2-[4-(1-methyl-4,5-dihydro-1H-imidazol-2-yl)phenyl]ethyl}furan-3-carboxamide trifluoroacetamide]"
23,10 to 100,"COc1cc(C)c(S(=O)(=O)N(C)Cc2noc(C(=O)N3CCN(CCCN(C)C)CC3)n2)c(C)c1 [Ex 309, N-{[5-({4-[3-(Dimethylamino)propyl]piperazin-1-yl}carbonyl)-1,2,4-oxadiazol-3-yl]methyl}-4-methoxy-N,2,6-trimethylbenzenesulfonamide]"
24,100 to 1000,"CN(Cc1cc(C(=O)NCCc2ccc(C3=NCCN3)cc2)co1)S(=O)(=O)c1c(Cl)cc(Br)cc1Cl [Ex 25, 5-({[(4-bromo-2,6-dichlorophenyl)sulfonyl](methyl)amino}methyl)-N-{2-[4-(4,5-dihydro-1H-imidazol-2-yl)phenyl]ethyl}furan-3-carboxamide]"
25,< 10,"COc1cc(C)c(S(=O)(=O)N(Cc2cc(C(=O)N(C)CCc3ccc(C4=NCCN4)cc3)co2)C2CCC2)c(C)c1 [Ex 51, 5-({Cyclobutyl[(4-methoxy-2,6-dimethylphenyl)sulfonyl]amino}methyl)-N-{2-[4-(4,5-dihydro-1H-imidazol-2-yl)phenyl]ethyl}-N-methylfuran-3-carboxamide]"
